The record followed here is ChEMBL document CHEMBL4118055, “Chemoenzymatic Synthesis and α-Glucosidase Inhibitory Activity of Dimeric Neolignans Inspired by Magnolol” (J Nat Prod, 2017).

The nature of assay [1]: Inhibition of yeast alpha-glucosidase using p-nitrophenyl-alpha-glucopyranoside as substrate measured after 30 mins. Also noted: species or system Saccharomyces cerevisiae.
For another assay, the system named is Saccharomyces cerevisiae. Briefly: Inhibition of yeast alpha-glucosidase at 1.5 uM using p-nitrophenyl-alpha-glucopyranoside as substrate measured after 30 mins relative to control.
A short description of assay [2]: Competitive-inhibition of yeast alpha-glucosidase using varying levels of p-nitrophenyl-alpha-glucopyranoside as substrate incubated for 20 mins measured at 1 min interval by Lineweaver-burk plot analysis. Also noted: species or system Saccharomyces cerevisiae.

The compound `CC(=O)OCCc1cc(O)c(O)c(-c2cc(CCOC(C)=O)cc(O)c2O)c1` returned an IC50 in assay [1] of 2.9 µM. In the assay with Saccharomyces cerevisiae, the inhibition was determined as 31.4%.
Compound `OCCc1cc(O)c(O)c(-c2cc(CCO)cc(O)c2O)c1` showed an IC50 in assay [1] of 4.1 µM. Also, the inhibition in the assay with Saccharomyces cerevisiae was 18.2%.
As for `C=CCc1ccc(O)c(-c2cc(CC=C)cc(O)c2O)c1`, the IC50 in assay [1] came out at 0.49 µM. This compound gave an inhibition in the assay on Saccharomyces cerevisiae of 97.6%.
`C[C@H]1O[C@H](O[C@H]2[C@H](O)[C@@H](O)[C@@H](O[C@H]3[C@H](O)[C@@H](O)C(O)O[C@@H]3CO)O[C@@H]2CO)[C@H](O)[C@@H](O)[C@@H]1N[C@H]1C=C(CO)[C@@H](O)[C@H](O)[C@H]1O` (stereo partly specified) [ACARBOSE] displayed an IC50 in assay [1] of 270 µM. Besides, the inhibition with Saccharomyces cerevisiae came to 0.7%.
For `COc1cc(CCOC(C)=O)cc(-c2cc(CCOC(C)=O)cc(O)c2O)c1O` the same measures were 3.3 µM and 21.3%.
On to `COc1cc(CCO)cc(-c2cc(CCO)cc(O)c2O)c1O`, for which the IC50 in assay [1] was > 100 µM.
As to `C=CCc1cc(O)c(O)c(-c2cc(CC=C)cc(O)c2O)c1`, the IC50 in assay [1] turned out to be 2.1 µM. The inhibition in the assay with Saccharomyces cerevisiae was 36.7%.
For the compound `COc1cc(CCOC(C)=O)cc(-c2cc(CCOC(C)=O)cc(OC)c2O)c1O`, inhibition in assay [1] was half-maximal at 1.1 µM (IC50). In addition, the inhibition in the assay on Saccharomyces cerevisiae worked out at 64.5%.
Turning to `O=c1c(O)c(-c2ccc(O)c(O)c2)oc2cc(O)cc(O)c12` [QUERCETIN], in assay [1], the IC50 was 14.2 µM. Further, in the assay on Saccharomyces cerevisiae, the inhibition came out at 5.3%.
The corresponding values for `C=CCc1cc(OC)c(O)c(-c2cc(CC=C)cc(OC)c2O)c1` are 2 µM and 46.7%.
As for `COc1cc(CCO)cc(-c2cc(CCO)cc(OC)c2O)c1O`, the IC50 in assay [1] is > 100 µM.
Take `OCCc1ccc(O)c(-c2cc(CCO)ccc2O)c1`: the IC50 in assay [1] was 0.86 µM. For the same compound, the inhibition in the assay on Saccharomyces cerevisiae amounted to 76.9%.
`C=CCc1ccc(O)c(-c2ccc(O)c(CC=C)c2)c1` [HONOKIOL] showed an IC50 in assay [1] of 23 µM. Besides, the inhibition in the assay with Saccharomyces cerevisiae was determined as 3.9%.
As for `C=CCc1ccc(O)c(-c2cc(CC=C)ccc2O)c1` [MAGNOLOL], in assay [1], 2 µM corresponded to half-maximal inhibition (IC50). The inhibition with Saccharomyces cerevisiae stood at 29.8%.
For `C=CCc1cc(O)c(O)c(-c2cc(CC=C)cc(OC)c2O)c1` the same measures were 0.5 µM and 98%.
In assay [1], `CC(=O)OCCc1ccc(O)c(-c2cc(CCOC(C)=O)ccc2O)c1` gave an IC50 of 0.15 µM. The Ki in assay [2] was 0.86 µM. For the same compound, the inhibition in the assay with Saccharomyces cerevisiae came out at 98.9%.

Broadly, the IC50 is the concentration that gives 50% inhibition. A high value points to weaker potency in that assay. The term inhibition denotes the share of the control response that was lost under treatment. As a reminder, the Ki is a measure of affinity in units of concentration, obtained from inhibition or displacement.
